Measured values as given in US12077512B2, “Compositions and methods for reducing tactile dysfunction, anxiety, and social impairment” (President and Fellows of Harvard College, priority 2019, dated 2024).

How the values were obtained:
[1] = tested on: Advillin^Cre and Mecp^2f/y mice and control littermates; test: Tactile prepulse inhibition (PPI): startle response to a 125 dB noise preceded by a light air puff; type: in vivo; conditions: i.p., 2 mg/kg vs saline, both Mecp2 mutants and controls
Procedure: FIG. 1 is a graph showing percent inhibition of the startle response to a 125 dB noise, when the startle noise is preceded by a light air puff in mice following i.p. administration of either saline or 2 mg/kg midazolam treatment. Two-way ANOVA with post-hoc Sidak's test, *, p<0.05.

[2] = tested on: Advillin^Cre and Mecp^2f/y mice and control littermates; test: Magnitude of startle response to a 125 dB noise; type: in vivo; conditions: i.p., 2 mg/kg vs saline, all mice
Procedure: FIG. 3 is a graph showing magnitude of startle response to a 125 dB noise in mice following i.p. administration of either saline or 2 mg/kg midazolam treatment. Responses are expressed as percent of startle response to a 125 dB noise. Two-way ANOVA with post-hoc Sidak's test, *, p<0.05.

Cc1ncc2n1-c1ccc(Cl)cc1C(c1ccccc1F)=NC2 [midazolam]
tactile sensitivity (percent inhibition of the startle response to a 125 dB noise when preceded by a light air puff, tactile PPI) [1]: significantly attenuated tactile sensitivity | sedation ([2]; evidenced by startle amplitude): caused significant sedation | reduction in startle amplitude ([2]; startle to 125 dB noise): ~50%
